One data set relates to VIP receptor. The data set can be described thus: Receptor blocking with unlabeled VIP-28 or TP3654 in LS174T tumor-bearing nude mice. It counts as in vivo. The note with it: 50 μg unlabeled peptide intravenously 30 min before tracer, 24 h, vs not pretreated mice. Here is the method: Receptor Blocking […] Mice were killed 24 h later, and percentage injected dose per gram of tissues was determined. Data were compared to 24 h distribution in mice (n=5) given 700 μCi ^99mTc-TP3654 but not pretreated with unlabeled VIP or TP3654.

Details of data set [1]: species or system Sprague-Dawley rats. The following applies: Sprague-Dawley, rat, in vivo, iv. Here is the method: Blood Clearance in Rats Three Sprague-Dawley rats, each weighing approximately 250 g, were injected through a lateral tail vein with 1 mCi ^99mTcTP3654 and serial blood samples were drawn, in triplicate, through the other lateral tail vein at 1, 5, 10, 15 and 30 min and then at 1, 2, 4, 6, 18 and 24 h. Blood samples were weighed, radioactivity was counted with a standard ^99mTc solution prepared at the time of injection and the percentage injected dose per gram of blood was plotted as a function of time.

Data set [2] is classed as physicochemical. Here is the method:
Stability of ^99mTc-TP3654 To measure the in vitro stability of ^99mTc-TP3654, a known quantity of the preparation was incubated at 37° C. for 24 h, with 100 molar excess of DTPA, HSA or cysteine. At 0, 5 and 24 h, samples were withdrawn for HPLC analysis and the radioactivity that was associated with the challenging agent and that remained as ^99mTc-TP3654 (Rt=11.8 min) was measured.

In data set [3] the test system is LS174T human colorectal tumor. The following applies: athymic NCr nude, mouse, in vivo, iv, 24 h.
Procedure: Tissue Distribution Studies
(§1) The ability of ^99MTc-TP3654 to detect human colorectal carcinoma was examined in nude mice.
(§2) Human colorectal cancer cells LS 174T (ATCC) were grown in culture and 5×10^6 viable cells were implanted intramuscularly in the right thighs of athymic NCr nude mice that weighed 20-25 g. Tumors were grown to no more than 1 cm in diameter. Each animal received approximately 700 Ci of ^99mTc-TP3654 (1450 Ci/mrnol) in 200 1, of saline through a lateral tail vein. Exact activity injected was determined by measuring the syringe, before and after injection, in a calibrated ionization chamber (Capintech, Ramsey, N.J.). A suitable standard of ^99mTc was prepared at the time of injection.
(§3) At 4 or 24 h later, animals were killed and imaged using a GE STARCAM gamma camera (Milwaukee, Wis.) equipped with a low-energy parallel-hole collimator and a dedicated computer. Tissues were dissected and weighed, and associated radioactivity was counted (Packard 5000 series gamma counter), along with a standard, in duplicate. Results were calculated as percentage injected dose per gram of tissue (% ID/g) and were analyzed by using Student t test.
(§4) A tissue distribution study was performed in a manner similar to that for ^99mTc-TP3654.
(§5) For animal tissue distribution studies, a protocol similar to that for ^99mTc-TP3654 was followed.
Data set [4] can be described thus: in vivo. The following applies: athymic NCr nude, mouse, iv, total radioactivity; for tissue uptake at 4 h / tissue uptake at 24 h: Biodistribution.
Procedure: Tissue Distribution Studies
as §1, §2, §3, §4, §5
The nature of data set [5]: in vivo. The following applies: rat, total radioactivity.
The subject of data set [6] is LS174T human colorectal tumor. The data set can be described thus: Tissue distribution and gamma camera imaging in nude mice bearing LS174T tumors. The note with it: for delineation of tumor in gamma camera image: nude mice bearing LS174T tumor in right thigh, 24 h after injection.
Procedure: Tissue Distribution Studies
as §1, §2, §3, §4, §5
Data set [7] concerns internal anal sphincter (IAS) smooth muscle. The data set can be described thus: Functional assay using opossum internal anal sphincter smooth muscle strips (fall in resting tension). It counts as tissue-based, opossums (Didelphis virginiana). The note with it: at 10^−6 mol/L; 100% = maximal relaxation with 5 mmol/L EDTA.
In another data set the test system is colonic adenocarcinoma. The following applies: cited from earlier work.
Data set [8] is described as follows: Tissue distribution and gamma camera imaging in nude mice bearing LS174T tumors. The note with it: athymic NCr nude, mouse, iv, total radioactivity, 24 h postinjection, mean ± SD, n = 5; for tissue uptake at 24 h: Biodistribution.
Procedure: Tissue Distribution Studies
as §1, §2, §3, §4, §5

“Also recorded” adds a separate entry of the source. Square brackets hold non-standard residues; d marks the D form. Ends that are not written are not given here. Peptide text beside a SMILES is read from it. GABA = NCCCC(=O)O

As a reminder, the tissue uptake is the percentage of the injected dose found per gram of tissue. As to `CC[C@H](C)[C@H](NC(=O)[C@H](CO)NC(=O)[C@H](CC(N)=O)NC(=O)[C@H](CC(C)C)NC(=O)[C@H](Cc1ccc(O)cc1)NC(=O)[C@H](CCCCN)NC(=O)[C@H](CCCCN)NC(=O)[C@@H](NC(=O)[C@H](C)NC(=O)[C@H](CCSC)NC(=O)[C@H](CCC(N)=O)NC(=O)[C@H](CCCCN)NC(=O)[C@H](CCCNC(=N)N)NC(=O)[C@H](CC(C)C)NC(=O)[C@H](CCCNC(=N)N)NC(=O)[C@@H](NC(=O)[C@H](Cc1ccc(O)cc1)NC(=O)[C@H](CC(N)=O)NC(=O)[C@H](CC(=O)O)NC(=O)[C@@H](NC(=O)[C@H](Cc1ccccc1)NC(=O)[C@@H](NC(=O)[C@H](C)NC(=O)[C@H](CC(=O)O)NC(=O)[C@H](CO)NC(=O)[C@@H](N)Cc1c[nH]cn1)C(C)C)[C@@H](C)O)[C@@H](C)O)C(C)C)C(=O)N[C@@H](CC(C)C)C(=O)N[C@@H](CC(N)=O)C(=O)NCCCC(=O)NCC(=O)NCC(=O)N[C@H](C)C(=O)NCC(=O)O` [^99mTc-TP3654, metal not drawn], in the data set with VIP receptor, the “uptake of ^99mTc-TP3654 after pretreatment with unlabeled TP3654 or VIP” value is “decreased in all VIP receptor-rich tissues except the kidneys”. In addition, the “blood clearance α-t 1/2” value in [1] is “approximately 5 min”. Besides, the “blood clearance β-t½” value in [1] is listed as “approximately 120 min”. The “stability on storage (HPLC)” value in data set [2] is listed as “stable for up to 24 h”. The “radioactivity displaced by challenge with 100 molar excess of DTPA, HSA or cysteine” value in [2] (24 h of incubation at 37° C.) is on record as “approximately 11%”. Besides, the “Biodistribution, Tumor” value in [3] is listed as 0.23 ± 0.13 % ID/g. Further, the tissue uptake at 4 h is 0.21 ± 0.02 %ID/g in “in vivo [4]” (Blood); 0.1 %ID/g in the data set “in vivo [4]” (Heart); 19 ± 3.75 %ID/g in “in vivo [4]” (Kidney); 1.12 ± 0.08 %ID/g in “in vivo [4]” (Liver); 0.17 ± 0.01 %ID/g in “in vivo [4]” (Lung); 0.09 ± 0.01 %ID/g in “in vivo [4]” (Muscle). The tissue uptake at 4 h was determined as 0.18 ± 0.05 %ID/g in “in vivo [4]” (Small intestine), 0.19 ± 0.05 %ID/g in the data set “in vivo [4]” (Spleen), 0.24 ± 0.06 %ID/g in the data set “in vivo [4]” (Tumor) and 0.73 ± 0.12 %ID/g in the data set “in vivo [5]”. In addition, the tissue uptake at 24 h in “in vivo [4]” (Blood) was 0.12 ± 0.02 %ID/g; in “in vivo [4]” (Heart), 0.06 ± 0.01 %ID/g; in “in vivo [4]” (Kidney), 3.52 ± 0.4 %ID/g; in “in vivo [4]” (Liver), 0.33 ± 0.04 %ID/g; in the data set “in vivo [4]” (Lung) it was 0.16 ± 0.09 %ID/g; in the data set “in vivo [4]” (Muscle), 0.04 ± 0.01 %ID/g. Further, the tissue uptake at 24 h stood at 0.05 ± 0.01 %ID/g in “in vivo [4]” (Small intestine), 0.11 ± 0.02 %ID/g in the data set “in vivo [4]” (Spleen) and 0.2 %ID/g in “in vivo [4]” (Tumor). The results for the tissue to tissue ratio at 4 h in the data set “in vivo [4]” (T/B ratio (tumor-to-blood)) and in the data set “in vivo [4]” (T/M ratio (tumor-to-muscle)) were 1.16 ± 0.29 and 2.73 ± 1.09, respectively. The figures for the tissue to tissue ratio at 24 h in “in vivo [4]” (T/B ratio (tumor-to-blood)) and in the data set “in vivo [4]” (T/M ratio (tumor-to-muscle)) were 1.98 ± 1.44 and 6.28 ± 3.09, respectively. In addition, in data set [6], the “delineation of tumor in gamma camera image” value is “delineates the tumor and both kidneys; also recorded: clearly delineated”.

With “CPTA-VIP: VIP conjugated with the chelating agent CPTA, [4-(1,4,8,11-tetraazacyclotetradec-1-yl)methyl] benzoic acid (HSDAVFTDNYTRLRKQMAVKKYLNSILN; ends and bridges not checked; also: conjugated with chelator CPTA, position not given here; UniProt P01282 125-152, looked up)”, the “muscle relaxivity (fall in resting IAS tension)” value in data set [7] is given as 35%.

Take “I-123 labeled VIP: I-123 labeled vasoactive intestinal peptide (VIP)”: the “positive scans in patients with colonic adenocarcinoma” value in the data set on colonic adenocarcinoma (17 patients) is listed as 17 out of 17. Further, the lung uptake result in the data set with colonic adenocarcinoma (human, in vivo) was “approximately 25%”. In the data set with colonic adenocarcinoma (patients), the “effectiveness in imaging colorectal adenocarcinoma” value is 100%, the “effectiveness in imaging in patients with liver metastases” value is 83% and the “imaging of lung metastases” value is 66%.

As for `C[C@@H](NC(=O)CN)C(=O)NCC(=O)NCC(=O)NCCCC(=O)O` [^99mTc-G(D)AGG-Aba, metal not drawn] (H-G[dA]GG[GABA]-OH; N-terminus and C-terminus assumed), the tissue uptake at 24 h in [8] (blood, nude mice bearing LS174T tumors) amounted to 0.03 %ID/g; in [8] (heart, nude mice bearing LS174T tumors), 0.01 %ID/g; in data set [8] (kidney, nude mice bearing LS174T tumors), 0.2 ± 0.02 %ID/g; in data set [8] (liver, nude mice bearing LS174T tumors), 0.16 ± 0.02 %ID/g; in [8] (lung, nude mice bearing LS174T tumors) it was 0.03 %ID/g; in data set [8] (muscle, nude mice bearing LS174T tumors) it was 0.01 %ID/g. For the same molecule, the tissue uptake at 24 h amounted to 0.03 ± 0.01 %ID/g in data set [8] (small intestine, nude mice bearing LS174T tumors); 0.06 ± 0.03 %ID/g in data set [8] (spleen, nude mice bearing LS174T tumors); 0.03 %ID/g in data set [8] (tumor, LS174T tumor, nude mice). In addition, the tissue to tissue ratio at 24 h in [8] (tumor/blood, T/B ratio (tumor-to-blood), nude mice bearing LS174T tumors) turned out to be 0.77 ± 0.03; in data set [8] (tumor/muscle, T/M ratio (tumor-to-muscle), nude mice bearing LS174T tumors) it was 1.88 ± 0.36. The “Biodistribution, Kidney” value in data set [6] (kidney, 24 h postinjection, nude mice bearing LS174T tumors, mean ± SD, n = 5) was found to be 0.2±0.02 % ID/g. Besides, the “delineation of tumor in gamma camera image” value in data set [6] is reported as “not delineated”; in data set [6] (listed as 99mTc-G(D)AGG), “not”.

(Values after patent US6395255B1, “Radiolabeled vasoactive intestinal peptide analogs for imaging and therapy” (Thomas Jefferson University, priority 1998, dated 2002).)
